SMILES strings stand for the structures. A value given as a limit tells only on which side of the number the result lay.

The test system of this assay is HCT116. The assay is described as follows: In Vitro cytotoxicity measured by the cell colony formation assay. The class given is cell-based. The note with it: Homo sapiens, HCT-116; 72 h drug incubation, colonies counted after 7 days; concentration producing 50% inhibition of colony formation; read-out: IN VITRO ID 50 (nm) HCT116. Here is the method: In Vitro cytotoxicity measured by the cell colony formation assay
Four hundred cells (HCT116) were plated in 60 mm Petri dishes containing 2.7 mL of medium (modified McCoy's 5a medium containing 10% fetal bovine serum and 100 units/mL penicillin and […] streptomycin). The cells were incubated in a CO2 incubator at 37 °C for 5 h for attachment to the bottom of Petri dishes. The compounds identified in Example 2 were made up fresh in medium at ten times the final concentration, and then 0.3 mL of this stock solution was added to the 2.7 mL of medium in the dish. The cells were then incubated with drugs for 72 h at 37 ° C. At the end of incubation the drug-containing media were decanted, the dishes were rinsed with 4 mL of Hank's Balance Salt Solution (HBSS), 5 mL of fresh medium was added, and the dishes were returned to the incubator for colony formation. The cell colonies were counted using a colony counter after incubation for 7 days. Cell survival was calculated and the values of ID50 (the drug concentration producing 50% inhibition of colony formation) were determined for each tested compound.

On to `CCCC(=O)O[C@H]1C[C@H]2OC[C@@]2(OC(C)=O)[C@H]2[C@H](OC(=O)c3ccccc3)[C@]3(O)C[C@H](OC(=O)[C@H](O)[C@@H](NC(=O)OC(C)(C)C)C4CC4)C(C)=C([C@@H](O)C(=O)[C@]12C)C3(C)C` [Compound 5080], for which the IC50 was less than 1 nM. Next, `CCC(=O)O[C@H]1C[C@H]2OC[C@@]2(OC(C)=O)[C@H]2[C@H](OC(=O)c3ccccc3)[C@]3(O)C[C@H](OC(=O)[C@H](O)[C@@H](NC(=O)OC(C)(C)C)c4ccncc4)C(C)=C([C@@H](O)C(=O)[C@]12C)C3(C)C` [Compound 1386]: less than 1 nM. Next, `C/C=C/C(=O)O[C@H]1C[C@H]2OC[C@@]2(OC(C)=O)[C@H]2[C@H](OC(=O)c3ccccc3)[C@]3(O)C[C@H](OC(=O)[C@H](O)[C@@H](NC(=O)OC(C)(C)C)c4cccs4)C(C)=C([C@@H](O)C(=O)[C@]12C)C3(C)C` [Compound 6686]: less than 1 nM; `CCCC(=O)OC1CC2OCC2(OC(C)=O)C2C(OC(=O)c3ccccc3)C3(O)CC(OC(=O)C(O)C(NC(=O)OC(C)(C)C)c4cccs4)C(C)=C(C(O)C(=O)C12C)C3(C)C` (stereo not drawn) [Compound 4256]: less than 1 nM; `CCC(=O)O[C@H]1C[C@H]2OC[C@@]2(OC(C)=O)[C@H]2[C@H](OC(=O)c3ccccc3)[C@]3(O)C[C@H](OC(=O)[C@H](O)[C@@H](NC(=O)OC(C)(C)C)C(C)C)C(C)=C([C@@H](O)C(=O)[C@]12C)C3(C)C` [Compound 1434]: less than 10 nM.

Take `C/C=C/C(=O)N[C@@H](c1ccco1)[C@@H](O)C(=O)O[C@H]1C[C@@]2(O)[C@@H](OC(=O)c3ccccc3)[C@@H]3[C@]4(OC(C)=O)CO[C@@H]4C[C@H](OC(=O)C(C)C)[C@@]3(C)C(=O)[C@H](O)C(=C1C)C2(C)C` [Compound 6202]: the IC50 is less than 1 nM. Next, `CCOC(=O)N[C@@H](c1ccco1)[C@@H](O)C(=O)O[C@H]1C[C@@]2(O)[C@@H](OC(=O)c3ccccc3)[C@@H]3[C@]4(OC(C)=O)CO[C@@H]4C[C@H](OC(=O)CC)[C@@]3(C)C(=O)[C@H](O)C(=C1C)C2(C)C` [Compound 3611]: less than 1 nM. Regarding `CCCC(=O)OC1CC2OCC2(OC(C)=O)C2C(OC(=O)c3ccccc3)C3(O)CC(OC(=O)C(O)C(NC(=O)OCC(C)C)c4cccs4)C(C)=C(C(O)C(=O)C12C)C3(C)C` (stereo not drawn) [Compound 4290], the IC50 was less than 10 nM. In the case of `CCC(=O)O[C@H]1C[C@H]2OC[C@@]2(OC(C)=O)[C@H]2[C@H](OC(=O)c3ccccc3)[C@]3(O)C[C@H](OC(=O)[C@H](O)[C@@H](NC(=O)OCC(C)C)C4CC4)C(C)=C([C@@H](O)C(=O)[C@]12C)C3(C)C` [Compound 5191], the IC50 was less than 10 nM. Next, `CC(=O)O[C@@]12CO[C@@H]1C[C@H](OC(=O)C(C)C)[C@@]1(C)C(=O)[C@H](O)C3=C(C)[C@@H](OC(=O)[C@H](O)[C@@H](NC(=O)OC(C)(C)C)c4cccs4)C[C@@](O)([C@@H](OC(=O)c4ccccc4)[C@H]21)C3(C)C` [Compound 6333]: less than 1 nM. Take `CCC(C)(C)OC(=O)N[C@@H](c1ccco1)[C@@H](O)C(=O)O[C@H]1C[C@@]2(O)[C@@H](OC(=O)c3ccccc3)[C@@H]3[C@]4(OC(C)=O)CO[C@@H]4C[C@H](OC(=O)C(C)C)[C@@]3(C)C(=O)[C@H](O)C(=C1C)C2(C)C` [Compound 6252]: the IC50 was less than 1 nM. In the case of `CCC(=O)O[C@H]1C[C@H]2OC[C@@]2(OC(C)=O)[C@H]2[C@H](OC(=O)c3ccccc3)[C@]3(O)C[C@H](OC(=O)[C@H](O)[C@@H](NC(=O)c4ccco4)c4cccs4)C(C)=C([C@@H](O)C(=O)[C@]12C)C3(C)C` [Compound 3069] it was less than 1 nM.

For the compound `CCCC(=O)OC1CC2OCC2(OC(C)=O)C2C(OC(=O)c3ccccc3)C3(O)CC(OC(=O)C(O)C(C=C(C)C)NC(=O)OC(C)(C)C)C(C)=C(C(O)C(=O)C12C)C3(C)C` (stereo not drawn) [Compound 4406], the IC50 was less than 1 nM. Consider `CCCC(=O)OC1CC2OCC2(OC(C)=O)C2C(OC(=O)c3ccccc3)C3(O)CC(OC(=O)C(O)C(NC(=O)OC(C)(C)C)c4ccsc4)C(C)=C(C(O)C(=O)C12C)C3(C)C` (stereo not drawn) [Compound 4446], for which the IC50 was less than 1 nM. `CCC(=O)O[C@H]1C[C@H]2OC[C@@]2(OC(C)=O)[C@H]2[C@H](OC(=O)c3ccccc3)[C@]3(O)C[C@H](OC(=O)[C@H](O)[C@H](C=C(C)C)NC(=O)OCC(C)C)C(C)=C([C@@H](O)C(=O)[C@]12C)C3(C)C` [Compound 5121]: the IC50 was found to be 21.1 nM.

Turning to `CCC(=O)O[C@H]1C[C@H]2OC[C@@]2(OC(C)=O)[C@H]2[C@H](OC(=O)c3ccccc3)[C@]3(O)C[C@H](OC(=O)[C@H](O)[C@@H](NC(=O)c4ccccc4)c4ccsc4)C(C)=C([C@@H](O)C(=O)[C@]12C)C3(C)C` [Compound 3388], the IC50 was less than 10 nM. In the case of `CCC(C)(C)OC(=O)N[C@@H](c1ccco1)[C@@H](O)C(=O)O[C@H]1C[C@@]2(O)[C@@H](OC(=O)c3ccccc3)[C@@H]3[C@]4(OC(C)=O)CO[C@@H]4C[C@H](OC(=O)CC(C)C)[C@@]3(C)C(=O)[C@H](O)C(=C1C)C2(C)C` [Compound 6282] it was less than 10 nM; in that of `CCCC(=O)O[C@H]1C[C@H]2OC[C@@]2(OC(C)=O)[C@H]2[C@H](OC(=O)c3ccccc3)[C@]3(O)C[C@H](OC(=O)[C@H](O)[C@@H](NC(=O)OC(C)(C)CC)c4ccco4)C(C)=C([C@@H](O)C(=O)[C@]12C)C3(C)C` [Compound 6272], less than 1 nM; in that of `CCC(=O)O[C@H]1C[C@H]2OC[C@@]2(OC(C)=O)[C@H]2[C@H](OC(=O)c3ccccc3)[C@]3(O)C[C@H](OC(=O)[C@H](O)[C@@H](NC(=O)OC(C)(C)C)c4ccccn4)C(C)=C([C@@H](O)C(=O)[C@]12C)C3(C)C` [Compound 1364], less than 10 nM. For the compound `CCCC(=O)O[C@H]1C[C@H]2OC[C@@]2(OC(C)=O)[C@H]2[C@H](OC(=O)c3ccccc3)[C@]3(O)C[C@H](OC(=O)[C@H](O)[C@@H](NC(=O)OCC(C)C)C4CC4)C(C)=C([C@@H](O)C(=O)[C@]12C)C3(C)C` [Compound 5202], the IC50 is less than 10 nM.

Turning to `CCCC(=O)N[C@@H](c1ccco1)[C@@H](O)C(=O)O[C@H]1C[C@@]2(O)[C@@H](OC(=O)c3ccccc3)[C@@H]3[C@]4(OC(C)=O)CO[C@@H]4C[C@H](OC(=O)CC)[C@@]3(C)C(=O)[C@H](O)C(=C1C)C2(C)C` [Compound 3171], the IC50 is less than 1 nM. In the case of `CCCC(=O)O[C@H]1C[C@H]2OC[C@@]2(OC(C)=O)[C@H]2[C@H](OC(=O)c3ccccc3)[C@]3(O)C[C@H](OC(=O)[C@H](O)[C@@H](NC(=O)c4cccs4)c4cccs4)C(C)=C([C@@H](O)C(=O)[C@]12C)C3(C)C` [Compound 4454] it was less than 1 nM.

For the compound `CCCC(=O)O[C@H]1C[C@H]2OC[C@@]2(OC(C)=O)[C@H]2[C@H](OC(=O)c3ccccc3)[C@]3(O)C[C@H](OC(=O)[C@H](O)[C@H](C=C(C)C)NC(=O)OCC(C)C)C(C)=C([C@@H](O)C(=O)[C@]12C)C3(C)C` [Compound 5131], the IC50 is less than 10 nM. In the case of `CCCC(=O)O[C@H]1C[C@H]2OC[C@@]2(OC(C)=O)[C@H]2[C@H](OC(=O)c3ccccc3)[C@]3(O)C[C@H](OC(=O)[C@H](O)[C@@H](NC(=O)OCC(C)C)c4ccoc4)C(C)=C([C@@H](O)C(=O)[C@]12C)C3(C)C` [Compound 4828] it was less than 10 nM; in that of `CCCC(=O)OC1CC2OCC2(OC(C)=O)C2C(OC(=O)c3ccccc3)C3(O)CC(OC(=O)C(O)C(NC(=O)OC(C)C)c4cccs4)C(C)=C(C(O)C(=O)C12C)C3(C)C` (stereo not drawn) [Compound 4135], less than 1 nM.

As to `CCC(=O)OC1CC2OCC2(OC(C)=O)C2C(OC(=O)c3ccccc3)C3(O)CC(OC(=O)C(O)C(NC(=O)OCC(C)C)c4ccsc4)C(C)=C(C(O)C(=O)C12C)C3(C)C` (stereo not drawn) [Compound 4544], the IC50 was less than 10 nM.

As to `CCCC(=O)OC1CC2OCC2(OC(C)=O)C2C(OC(=O)c3ccccc3)C3(O)CC(OC(=O)C(O)C(NC(=O)C=C(C)C)c4cccs4)C(C)=C(C(O)C(=O)C12C)C3(C)C` (stereo not drawn) [Compound 4283], the IC50 is less than 1 nM. In the case of `CCCC(=O)OC1CC2OCC2(OC(C)=O)C2C(OC(=O)c3ccccc3)C3(O)CC(OC(=O)C(O)C(NC(=O)OCC(C)C)c4ccsc4)C(C)=C(C(O)C(=O)C12C)C3(C)C` (stereo not drawn) [Compound 4600], the IC50 was less than 10 nM. Turning to `C/C=C/C(=O)N[C@@H](c1ccoc1)[C@@H](O)C(=O)O[C@H]1C[C@@]2(O)[C@@H](OC(=O)c3ccccc3)[C@@H]3[C@]4(OC(C)=O)CO[C@@H]4C[C@H](OC(=O)CC)[C@@]3(C)C(=O)[C@H](O)C(=C1C)C2(C)C` [Compound 4898], the IC50 is less than 1 nM.

Regarding `CCC(=O)O[C@H]1C[C@H]2OC[C@@]2(OC(C)=O)[C@H]2[C@H](OC(=O)c3ccccc3)[C@]3(O)C[C@H](OC(=O)[C@H](O)[C@@H](NC(=O)OCC(C)C)c4ccco4)C(C)=C([C@@H](O)C(=O)[C@]12C)C3(C)C` [Compound 3196], the IC50 is less than 10 nM. With `CCC(=O)OC1CC2OCC2(OC(C)=O)C2C(OC(=O)c3ccccc3)C3(O)CC(OC(=O)C(O)C(NC(=O)c4cccnc4)c4cccs4)C(C)=C(C(O)C(=O)C12C)C3(C)C` (stereo not drawn) [Compound 4106], the IC50 was less than 10 nM. In the case of `CCC(=O)O[C@H]1C[C@H]2OC[C@@]2(OC(C)=O)[C@H]2[C@H](OC(=O)c3ccccc3)[C@]3(O)C[C@H](OC(=O)[C@H](O)[C@@H](NC(=O)OCC(C)C)c4ccoc4)C(C)=C([C@@H](O)C(=O)[C@]12C)C3(C)C` [Compound 4787] it was less than 10 nM; in that of `CCCC(=O)O[C@H]1C[C@H]2OC[C@@]2(OC(C)=O)[C@H]2[C@H](OC(=O)c3ccccc3)[C@]3(O)C[C@H](OC(=O)[C@H](O)[C@@H](NC(=O)c4ccccc4)c4cccs4)C(C)=C([C@@H](O)C(=O)[C@]12C)C3(C)C` [Compound 4414], less than 1 nM.

These data come from patent publication EP1285918A1, “C7 Ester substituted taxanes as antitumor agents” (Florida State University Research Foundation, Inc., priority 2001, dated 2003).
